Experimental data from ChEMBL document CHEMBL2331144, “Synthesis and anticancer activity of analogues of phenstatin, with a phenothiazine A-ring, as a new class of microtubule-targeting agents” (Bioorg Med Chem Lett, 2013).

How the values were obtained:
MDA-MB-468 = test: Growth inhibition of human MDA-MB-468 cells at 10 uM after 48 hrs by sulforhodamine B assay; format: functional; settings: MDA-MB-468, 48 h, read-out: GI
T47D = test: Growth inhibition of human T47D cells at 10 uM after 48 hrs by sulforhodamine B assay; format: functional; settings: read-out: GI
MDA-MB-231 = test: Growth inhibition of human MDA-MB-231 cells at 10 uM after 48 hrs by sulforhodamine B assay; format: functional; settings: MDA-MB-231, 48 h, read-out: GI
MCF7 = test: Growth inhibition of human MCF7 cells at 10 uM after 48 hrs by sulforhodamine B assay; format: functional; settings: MCF7, 48 h, read-out: GI
SNB-75 = test: Growth inhibition of human SNB75 cells at 10 uM after 48 hrs by sulforhodamine B assay; format: functional; settings: SNB-75, 48 h, read-out: GI
SF-295 = test: Growth inhibition of human SF295 cells at 10 uM after 48 hrs by sulforhodamine B assay; format: functional; settings: SF-295, 48 h, read-out: GI
PC-3 = test: Growth inhibition of human PC3 cells at 10 uM after 48 hrs by sulforhodamine B assay; format: functional; settings: PC-3, 48 h, read-out: GI
786-0 = test: Growth inhibition of human 786-0 cells at 10 uM after 48 hrs by sulforhodamine B assay; format: functional; settings: 786-0, 48 h, read-out: GI
UO-31 = test: Growth inhibition of human UO31 cells at 10 uM after 48 hrs by sulforhodamine B assay; format: functional; settings: UO-31, 48 h, read-out: GI
CAKI-1 = test: Growth inhibition of human CAKI-1 cells at 10 uM after 48 hrs by sulforhodamine B assay; format: functional; settings: CAKI-1, 48 h, read-out: GI
RXF 393 = test: Growth inhibition of human RXF393 cells at 10 uM after 48 hrs by sulforhodamine B assay; format: functional; settings: RXF 393, 48 h, read-out: GI
A498 = test: Growth inhibition of human A498 cells at 10 uM after 48 hrs by sulforhodamine B assay; format: functional; settings: A498, 48 h, read-out: GI
[1] = Growth inhibition of human NCI-ADR-RES cells at 10 uM after 48 hrs by sulforhodamine B assay; format: functional; settings: read-out: GI
OVCAR-4 = test: Growth inhibition of human OVCAR4 cells at 10 uM after 48 hrs by sulforhodamine B assay; format: functional; settings: OVCAR-4, 48 h, read-out: GI
SK-MEL-5 = test: Growth inhibition of human SK-MEL-5 cells at 10 uM after 48 hrs by sulforhodamine B assay; format: functional; settings: SK-MEL-5, 48 h, read-out: GI
Malme-3M = test: Growth inhibition of human MALME-3M cells at 10 uM after 48 hrs by sulforhodamine B assay; format: functional; settings: read-out: GI
LOX IMVI = test: Growth inhibition of human LOXIMVI cells at 10 uM after 48 hrs by sulforhodamine B assay; format: functional; settings: read-out: GI
UACC-62 = test: Growth inhibition of human UACC62 cells at 10 uM after 48 hrs by sulforhodamine B assay; format: functional; settings: UACC-62, 48 h, read-out: GI
KM12 = test: Growth inhibition of human KM12 cells at 10 uM after 48 hrs by sulforhodamine B assay; format: functional; settings: KM12, 48 h, read-out: GI
MDA-MB-435 = test: Growth inhibition of human MDA-MB-435 cells at 10 uM after 48 hrs by sulforhodamine B assay; format: functional; settings: MDA-MB-435, 48 h, read-out: GI
HCT-15 = test: Growth inhibition of human HCT15 cells at 10 uM after 48 hrs by sulforhodamine B assay; format: functional; settings: HCT-15, 48 h, read-out: GI
HCT-116 = test: Growth inhibition of human HCT116 cells at 10 uM after 48 hrs by sulforhodamine B assay; format: functional; settings: HCT-116, 48 h, read-out: GI
COLO 205 = test: Growth inhibition of human COLO205 cells at 10 uM after 48 hrs by sulforhodamine B assay; format: functional; settings: COLO 205, 48 h, read-out: GI
NCI-H522 = test: Growth inhibition of human NCI-H522 cells at 10 uM after 48 hrs by sulforhodamine B assay; format: functional; settings: NCI-H522, 48 h, read-out: GI
HOP-92 = test: Growth inhibition of human HOP92 cells at 10 uM after 48 hrs by sulforhodamine B assay; format: functional; settings: HOP-92, 48 h, read-out: GI
SR = test: Growth inhibition of human SR cells at 10 uM after 48 hrs by sulforhodamine B assay; format: functional; settings: read-out: GI
HOP-62 = test: Growth inhibition of human HOP62 cells at 10 uM after 48 hrs by sulforhodamine B assay; format: functional; settings: HOP-62, 48 h, read-out: GI
RPMI-8226 = test: Growth inhibition of human RPMI8226 cells at 10 uM after 48 hrs by sulforhodamine B assay; format: functional; settings: RPMI-8226, 48 h, read-out: GI
MOLT-4 = test: Growth inhibition of human MOLT4 cells at 10 uM after 48 hrs by sulforhodamine B assay; format: functional; settings: MOLT-4, 48 h, read-out: GI
K562 = test: Growth inhibition of human K562 cells at 10 uM after 48 hrs by sulforhodamine B assay; format: functional; settings: K562, 48 h, read-out: GI
HL-60(TB) = test: Growth inhibition of human HL-60(TB) cells at 10 uM after 48 hrs by sulforhodamine B assay; format: functional; settings: HL-60, 48 h, read-out: GI
CCRF-CEM = test: Growth inhibition of human CCRF-CEM cells at 10 uM after 48 hrs by sulforhodamine B assay; format: functional; settings: read-out: GI
Ovis aries = species on record: Ovis aries; test: Inhibition of sheep brain tubulin polymerization at 100 uM using DAPI by fluorimetry

Question: Which inhibition of growth at 10 µM (MDA-MB-468) does the source give for `CC(=O)c1cn(C(=O)N2c3ccccc3Sc3ccccc32)c2ccccc12` here?
Answer: 14%

Question: And the inhibition of growth at 10 µM (T47D)?
Answer: 25.1%

Question: And the inhibition of growth at 10 µM (MDA-MB-231)?
Answer: 0%

Question: And the inhibition of growth at 10 µM (MCF7)?
Answer: 0%

Question: And the inhibition of growth at 10 µM (SNB-75)?
Answer: 6%

Question: And the inhibition of growth at 10 µM (SF-295)?
Answer: 0.9%

Question: What about the inhibition of growth at 10 µM (PC-3) of the same molecule?
Answer: 18.3%

Question: What about the inhibition of growth at 10 µM (786-0) of the same molecule?
Answer: 6.7%

Question: And the inhibition of growth at 10 µM (UO-31)?
Answer: 24.2%

Question: And the inhibition of growth at 10 µM (CAKI-1)?
Answer: 14%

Question: And the inhibition of growth at 10 µM (RXF 393)?
Answer: 7%

Question: What about the inhibition of growth at 10 µM (A498) of the same molecule?
Answer: 1.3%

Question: What about the inhibition of growth at 10 µM [1] of the same molecule?
Answer: 4.9%

Question: What about the inhibition of growth at 10 µM (OVCAR-4) of the same molecule?
Answer: 0%

Question: And the inhibition of growth at 10 µM (SK-MEL-5)?
Answer: 8.5%

Question: And the inhibition of growth at 10 µM (Malme-3M)?
Answer: 7.6%

Question: And the inhibition of growth at 10 µM (LOX IMVI)?
Answer: 9%

Question: And the inhibition of growth at 10 µM (UACC-62)?
Answer: 16%

Question: What about the inhibition of growth at 10 µM (KM12) of the same molecule?
Answer: 6.6%

Question: What about the inhibition of growth at 10 µM (MDA-MB-435) of the same molecule?
Answer: 3%

Question: What about the inhibition of growth at 10 µM (HCT-15) of the same molecule?
Answer: 8.4%

Question: And the inhibition of growth at 10 µM (HCT-116)?
Answer: 6.8%

Question: And the inhibition of growth at 10 µM (COLO 205)?
Answer: 1.6%

Question: What about the inhibition of growth at 10 µM (NCI-H522) of the same molecule?
Answer: 17%

Question: And the inhibition of growth at 10 µM (HOP-92)?
Answer: 24.9%

Question: And the inhibition of growth at 10 µM (SR)?
Answer: 31.4%

Question: And the inhibition of growth at 10 µM (HOP-62)?
Answer: 13.3%

Question: What about the inhibition of growth at 10 µM (RPMI-8226) of the same molecule?
Answer: 35.5%

Question: And the inhibition of growth at 10 µM (MOLT-4)?
Answer: 16.9%

Question: What about the inhibition of growth at 10 µM (K562) of the same molecule?
Answer: 26.2%

Question: What about the inhibition of growth at 10 µM (HL-60(TB)) of the same molecule?
Answer: 16.5%

Question: And the inhibition of growth at 10 µM (CCRF-CEM)?
Answer: 7.2%

Question: What does the source list for `O=C(c1cc2cc(F)ccc2[nH]1)N1c2ccccc2Sc2ccccc21`?
Answer: inhibition (Ovis aries): 32%; inhibition of growth at 10 µM (MDA-MB-468): 11.6%; inhibition of growth at 10 µM (T47D): 10.1%; inhibition of growth at 10 µM (MDA-MB-231): 23.8%; inhibition of growth at 10 µM (MCF7): 3.4%; inhibition of growth at 10 µM (SNB-75): 20.6%; inhibition of growth at 10 µM (SF-295): 5.7%; inhibition of growth at 10 µM (PC-3): 44.7%; inhibition of growth at 10 µM (786-0): 11.2%; inhibition of growth at 10 µM (UO-31): 21.6%; inhibition of growth at 10 µM (CAKI-1): 17.3%; inhibition of growth at 10 µM (RXF 393): 7.7%; inhibition of growth at 10 µM (A498): 19.1%; inhibition of growth at 10 µM [1]: 15.6%; inhibition of growth at 10 µM (OVCAR-4): 14.8%; inhibition of growth at 10 µM (SK-MEL-5): 24.5%; inhibition of growth at 10 µM (Malme-3M): 3.9%; inhibition of growth at 10 µM (LOX IMVI): 33.6%; inhibition of growth at 10 µM (UACC-62): 25.6%; inhibition of growth at 10 µM (KM12): 1.7%; inhibition of growth at 10 µM (MDA-MB-435): 3.2%; inhibition of growth at 10 µM (HCT-15): 45.8%; inhibition of growth at 10 µM (HCT-116): 46.1%; inhibition of growth at 10 µM (COLO 205): 0%; inhibition of growth at 10 µM (NCI-H522): 0%; inhibition of growth at 10 µM (HOP-92): 4.2%; inhibition of growth at 10 µM (SR): 56.9%; inhibition of growth at 10 µM (HOP-62): 20.6%; inhibition of growth at 10 µM (RPMI-8226): 5.8%; inhibition of growth at 10 µM (MOLT-4): 31.8%; inhibition of growth at 10 µM (K562): 34.6%; inhibition of growth at 10 µM (HL-60(TB)): 1.3%; inhibition of growth at 10 µM (CCRF-CEM): 10.1%
